{
  "source": "patent US8404651B2",
  "about": "“Compositions and methods for treating viral infections” (priority 2008, dated 2013)",
  "key": {"TA1535": {"test_system": "TA1535", "assay": "In vitro bacterial mutagenicity assay (pre-incubation), strain TA1535", "conditions": "for Number of revertants x1, x2, x3: individual plates", "experimental": "(§1) Dispense 100 microliter aliquots of the appropriate bacterial cultures into sample tubes stored on ice. Dispense aliquots of the vehicle, positive controls or dose formulations into the appropriate sample tubes. 2 mL top Agar and HBT cap was added to the sample tube, inverted three times and poured into MG plate. The lid was replaced on the plate and left on a level surface to let the agar harden. The plates were incubated in an incubator for 48 to 72 h. The background lawn and count the number of revertants was checked for each plate."}, "[1]": {"assay": "14 day tolerability study in uPA SCID (KMT) mouse", "assay_type": "in vivo", "conditions": "for tolerability: 300 mg/kg once a day by oral gavage for 14 days, KMT mice", "experimental": "Two separate groups of animals were treated with vehicle control or with a daily drug dose of 300 mg/kg for 14 days. Blood samples were taken 15 minutes after the drug doses on Day 1 (first dose), Day 7 and Day 14 (last dose) for measurement of the concentration of the drug in the serum of study animals. Body weights and health index scores were monitored daily in order to assess tolerance of the study animals to the dosing procedure and the drug. […] The solution was used to dose animals in a volume of 7.5 ml/kg. The citric acid buffer was also used for dosing of the vehicle control animals.\nTen KMT transgenic animals with low engraftment of human liver cells (hAAT values less than 20 at 6 weeks) were allocated to this study. Individual body weights of animals were recorded prior to treatment and daily during the study. Animals were also evaluated once a day (at morning dose administration) for clinical signs and monitored for morbidity and mortality. The study animals were allocated into 2 groups of 5 animals. Compound 2 or citric acid vehicle control were administered once a day by oral gavage employing a sterile syringe and feeding needle for each animal. Dosing volume was 7.5 mL/kg (150 μL/20 grams body weight) for all groups. The volume was adjusted based on the daily body weight of each individual animal. […] The study started on Day 1 with the first drug dose administered in the morning and continued up to Day 14, the last day of drug treatment. Blood was collected via the central tail artery from all animals of each group on Day 1, fifteen minutes after the first drug dose, on Day 7, fifteen minutes after the drug dose, and on Day 14, fifteen minutes after the last drug dose. The blood samples were allowed to clot and the serum removed from above the clot pellet. Serum samples were stored at −80° C. prior to shipment to the study client. […]\nIndividual body weights of the animals were recorded prior to treatment and daily during the course of the study. The animals were also evaluated daily for clinical signs and monitored for morbidity and mortality. […]"}, "[2]": {"assay": "MTT cytotoxicity assay, Vero", "assay_type": "cell-based", "conditions": "African green monkey, Vero cells, 24-hour incubation", "experimental": "(§2) Cellular cytotoxicity profile of the compounds was carried out against a panel of cell lines. Standard MTT assays were performed in 96-well plates using the Promega CellTiter96 Non-radioactive Cell Proliferation Assay Kit in conjunction with a 96-well Plate Reader (ThermoMax, Molecular devices), and MDBK, Vero, and HFF cell lines (obtained from ATCC). Several controls were employed including the nucleoside analogs 3TC, AZT, and ddC, as well as, media without drugs. SDS was used as a positive cytotoxic control. The compounds were tested in triplicate at concentrations of 100, 300, and 1000 μM. Following a 24-hour incubation of cells with the test substance, the MTT assay was carried out."}, "[3]": {"test_system": "bacterial strains TA1535, TA1537, TA98, TA100, WP2 uvrA", "assay": "In vitro bacterial mutagenicity assay, overall conclusions for all strains", "experimental": "as §1"}, "TA1537": {"test_system": "TA1537", "assay": "In vitro bacterial mutagenicity assay (pre-incubation), strain TA1537", "conditions": "for Number of revertants x1, x2, x3: individual plates", "experimental": "as §1"}, "[4]": {"assay": "MTT cytotoxicity assay, MDBK", "assay_type": "cell-based", "conditions": "cattle, MDBK cells, 24-hour incubation", "experimental": "as §2"}, "[5]": {"assay": "In vitro cytotoxicity, HepG2", "assay_type": "cell-based", "conditions": "human, HepG2 cells"}, "[6]": {"conditions": "TA1535, absence of S9, 50 μg/plate"}, "[7]": {"conditions": "TA1535, absence of S9, 158 μg/plate"}, "[8]": {"conditions": "TA1535, absence of S9, 500 μg/plate"}, "[9]": {"conditions": "TA1535, absence of S9, 1581 μg/plate"}, "[10]": {"conditions": "TA1535, absence of S9, 5000 μg/plate"}, "[11]": {"conditions": "TA1535, presence of S9, 50 μg/plate"}, "[12]": {"conditions": "TA1535, presence of S9, 158 μg/plate"}, "[13]": {"conditions": "TA1535, presence of S9, 500 μg/plate"}, "[14]": {"conditions": "TA1535, presence of S9, 1581 μg/plate"}, "[15]": {"conditions": "TA1535, presence of S9, 5000 μg/plate"}, "[16]": {"conditions": "TA1537, absence of S9, 50 μg/plate"}, "[17]": {"conditions": "TA1537, absence of S9, 158 μg/plate"}, "[18]": {"conditions": "TA1537, absence of S9, 500 μg/plate"}, "[19]": {"conditions": "TA1537, absence of S9, 1581 μg/plate"}, "[20]": {"conditions": "TA1537, absence of S9, 5000 μg/plate"}, "[21]": {"conditions": "TA1537, presence of S9, 50 μg/plate"}, "[22]": {"conditions": "TA1537, presence of S9, 158 μg/plate"}, "[23]": {"conditions": "TA1537, presence of S9, 500 μg/plate"}, "[24]": {"conditions": "TA1537, presence of S9, 1581 μg/plate"}, "[25]": {"conditions": "TA1537, presence of S9, 5000 μg/plate"}},
  "note": "“And” between values parts separate entries of the source, which are not always exact repeats. Identical values can stand only once.",
  "data": [
    {"smiles": "COC1C(OP(=O)(OC[C@H]2O[C@@H](n3cnc4c(N)ncnc43)CC2O)SCOC(=O)OC(C)C)[C@@H](CO)O[C@H]1n1ccc(=O)[nH]c1=O", "note": "(stereo partly shown) [Compound 2, S-isopropylcarbonyloxymethyl thiophosphate (6k) of 3′dApsU2′OMe]", "values": [
      {"measurement": "Number of revertants mean", "setting": "TA1535; [6]", "value": 14},
      {"measurement": "Number of revertants x1, x2, x3", "setting": "TA1535; [6]", "value": "10 and 15 and 16"},
      {"measurement": "Number of revertants mean", "setting": "TA1535; [7]", "value": 23},
      {"measurement": "Number of revertants x1, x2, x3", "setting": "TA1535; [7]", "value": "21 (2×) and 26"},
      {"measurement": "Number of revertants mean", "setting": "TA1535; [8]", "value": 17},
      {"measurement": "Number of revertants x1, x2, x3", "setting": "TA1535; [8]", "value": "15 and 20 and 17"},
      {"measurement": "Number of revertants mean", "setting": "TA1535; [9]", "value": 16},
      {"measurement": "Number of revertants x1, x2, x3", "setting": "TA1535; [9]", "value": "13 and 18 and 17"},
      {"measurement": "Number of revertants mean", "setting": "TA1535; [10]", "value": 18},
      {"measurement": "Number of revertants x1, x2, x3", "setting": "TA1535; [10]", "value": "18 (2×) and 17"},
      {"measurement": "Number of revertants mean", "setting": "TA1535; [11]", "value": 19},
      {"measurement": "Number of revertants x1, x2, x3", "setting": "TA1535; [11]", "value": "21 and 15 and 20"},
      {"measurement": "Number of revertants mean", "setting": "TA1535; [12]", "value": 16},
      {"measurement": "Number of revertants x1, x2, x3", "setting": "TA1535; [12]", "value": "11 and 20 and 16"},
      {"measurement": "Number of revertants mean", "setting": "TA1535; [13]", "value": 17},
      {"measurement": "Number of revertants x1, x2, x3", "setting": "TA1535; [13]", "value": "19 and 13 and 20"},
      {"measurement": "Number of revertants mean", "setting": "TA1535; [14]", "value": 22},
      {"measurement": "Number of revertants x1, x2, x3", "setting": "TA1535; [14]", "value": "27 and 21 and 17"},
      {"measurement": "Number of revertants mean", "setting": "TA1535; [15]", "value": 17},
      {"measurement": "Number of revertants x1, x2, x3", "setting": "TA1535; [15]", "value": "18 and 16 (2×)"},
      {"measurement": "body weight change", "setting": "[1]; 300 mg/kg daily, Day 1 to Day 14, one animal in the drug group (F187)", "value": "small decrease in body weight"},
      {"measurement": "tolerability", "setting": "[1]", "value": "generally well tolerated"},
      {"measurement": "tolerability", "setting": "[1]; listed as drug", "value": "well tolerated"},
      {"measurement": "CC50 at 24 h", "setting": "[2]", "value": "> 1", "unit": "mM"},
      {"measurement": "increases in the revertant colony counts", "setting": "[3]; any strain, absence or presence of S9 mix", "value": "No substantial increases in the revertant colony counts"},
      {"measurement": "precipitation in the bacterial mutation test", "setting": "[3]; formulated in DMSO, up to 5000 μg/plate", "value": "No precipitation was observed"},
      {"measurement": "toxicity to the bacteria (thinning of the background lawn of non-revertant bacteria)", "setting": "[3]; up to 5000 μg/plate", "value": "non-toxic to the bacteria at the levels tested"},
      {"measurement": "Number of revertants mean", "setting": "TA1537; [16]", "value": 11},
      {"measurement": "Number of revertants x1, x2, x3", "setting": "TA1537; [16]", "value": "8 and 17 and 9"},
      {"measurement": "Number of revertants mean", "setting": "TA1537; [17]", "value": 12},
      {"measurement": "Number of revertants x1, x2, x3", "setting": "TA1537; [17]", "value": "9 and 8 and 19"},
      {"measurement": "Number of revertants mean", "setting": "TA1537; [18]", "value": 10},
      {"measurement": "Number of revertants x1, x2, x3", "setting": "TA1537; [18]", "value": "15 and 6 and 10"},
      {"measurement": "Number of revertants mean", "setting": "TA1537; [19]", "value": 15},
      {"measurement": "Number of revertants x1, x2, x3", "setting": "TA1537; [19]", "value": "17 and 15 and 13"},
      {"measurement": "Number of revertants mean", "setting": "TA1537; [20]", "value": 11},
      {"measurement": "Number of revertants x1, x2, x3", "setting": "TA1537; [20]", "value": "15 and 9 and 8"},
      {"measurement": "Number of revertants mean", "setting": "TA1537; [21]", "value": 17},
      {"measurement": "Number of revertants x1, x2, x3", "setting": "TA1537; [21]", "value": "20 and 17 and 15"},
      {"measurement": "Number of revertants mean", "setting": "TA1537; [22]", "value": 18},
      {"measurement": "Number of revertants x1, x2, x3", "setting": "TA1537; [22]", "value": "16 and 18 and 21"},
      {"measurement": "Number of revertants mean", "setting": "TA1537; [23]", "value": 17},
      {"measurement": "Number of revertants x1, x2, x3", "setting": "TA1537; [23]", "value": "25 and 12 and 15"},
      {"measurement": "Number of revertants mean", "setting": "TA1537; [24]", "value": 15},
      {"measurement": "Number of revertants x1, x2, x3", "setting": "TA1537; [24]", "value": "18 and 15 and 13"},
      {"measurement": "Number of revertants mean", "setting": "TA1537; [25]", "value": 12},
      {"measurement": "Number of revertants x1, x2, x3", "setting": "TA1537; [25]", "value": "11 and 15 and 10"},
      {"measurement": "CC50 at 24 h", "setting": "[4]", "value": "> 1", "unit": "mM"},
      {"measurement": "CC50", "setting": "[5]", "value": "> 0.1", "unit": "mM"}
    ]}
  ]
}
